From patent publication US9708336B2, “Metallo-beta-lactamase inhibitors” (priority 2014, dated 2017)
Like-named read-outs stand apart in the source and are kept apart here.

How the values were obtained:
NDM-1 = NDM-1 (Klebsiella pneumoniae, UniProt C7C422); experiment: biochemical; type: biochemical; conditions: read-out: NDM-1 IC50
[1] = tested on: Escherichia coli expressing NDM-1 (CLB30016); experiment: Antibiotic potentiation activity: synergistic concentration (MITC95) with imipenem, OD600 growth; type: cell-based
Method in brief: (§1)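 Absorbance after a 22–24 h, 35 °C incubation served as the read-out. Wells held bacteria (saline suspension diluted 1:100 into 1.1× CAMHB), imipenem at 4 μg/ml final or optionally 1 μg/ml, and test compound.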

[2] = tested on: Serratia marcescens expressing IMP-1 (CL5741); experiment: as above; type: cell-based
Method in brief: as §1

[3] = tested on: Klebsiella pneumoniae expressing VIM-1 (IHMA599644); experiment: as above; type: cell-based
Method in brief: as §1

IMP-1 = IMP-1 (Serratia marcescens, UniProt P52699); experiment: biochemical; type: biochemical; conditions: read-out: IMP-1 IC50
VIM-1 = VIM-1 (Pseudomonas aeruginosa (strain ATCC 15692 / DSM 22644 / CIP 104116 / JCM 14847 / LMG 12228 / 1C / PRS 101 / PAO1), UniProt A0A0F7KYQ8); experiment: Enzyme activity: determination of IC50, fluorescence assay with CCF2-FA substrate (VIM-1); type: biochemical
[4] = fluorescence assay with CCF2-FA substrate
[5] = CLB30016 (NDM-1), 95% inhibition of bacterial growth
[6] = CL5741 (IMP-1), 95% inhibition of bacterial growth
[7] = IHMA599644 (VIM-1), 95% inhibition of bacterial growth
[8] = fluorescence assay with CCF2-FA substrate, read-out: VIM-1 IC50
[9] = concentration giving 95% inhibition of bacterial growth
[10] = NDM-1 enzyme, CCF2-FA fluorescence assay
[11] = Escherichia coli expressing NDM-1 (CLB30016), 95% growth inhibition
[12] = Serratia marcescens expressing IMP-1 (CL5741), 95% growth inhibition
[13] = Klebsiella pneumoniae expressing VIM-1 (IHMA599644), 95% growth inhibition
[14] = IMP-1 enzyme, CCF2-FA fluorescence assay
[15] = VIM-1 enzyme, CCF2-FA fluorescence assay, read-out: VIM-1 IC50
[16] = NDM-1 enzyme, CCF2-FA substrate
[17] = (CLB30016, NDM-1), 95% growth inhibition
[18] = Serratia marcescens CL5741 (IMP-1), 95% growth inhibition
[19] = Klebsiella pneumoniae IHMA599644 (VIM-1), 95% growth inhibition
[20] = IMP-1 enzyme, CCF2-FA substrate
[21] = VIM-1 enzyme, CCF2-FA substrate, read-out: VIM-1 IC50
[22] = VIM-1 IC50, VIM-1 enzyme, CCF2-FA substrate

Chain of NDM-1 (C7C422 whole entry, looked up, species assumed): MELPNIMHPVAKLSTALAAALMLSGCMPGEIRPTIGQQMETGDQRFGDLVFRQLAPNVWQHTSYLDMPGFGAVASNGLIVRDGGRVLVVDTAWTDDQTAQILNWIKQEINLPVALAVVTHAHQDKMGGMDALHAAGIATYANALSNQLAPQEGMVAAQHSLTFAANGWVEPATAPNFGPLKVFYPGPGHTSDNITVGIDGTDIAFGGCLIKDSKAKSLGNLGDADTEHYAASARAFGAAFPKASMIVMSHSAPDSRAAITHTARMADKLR
Chain of IMP-1 (P52699 whole entry, looked up): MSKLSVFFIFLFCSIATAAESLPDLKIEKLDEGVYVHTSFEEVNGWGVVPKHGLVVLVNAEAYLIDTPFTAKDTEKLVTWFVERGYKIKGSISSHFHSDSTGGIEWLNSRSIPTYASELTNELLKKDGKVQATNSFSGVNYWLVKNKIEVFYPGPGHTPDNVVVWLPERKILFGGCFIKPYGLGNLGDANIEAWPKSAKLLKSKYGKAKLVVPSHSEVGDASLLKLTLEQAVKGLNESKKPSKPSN

Compound	IC50 (NDM-1; [10]) [µM]	Escherichia coli MITC95 [1, 11] [µM]	Serratia marcescens MITC95 [2, 12] [µM]	Klebsiella pneumoniae MITC95 [3, 13] [µM]	IC50 (IMP-1; [14]) [µM]	IC50 (VIM-1; [15]) [µM]	IC50 (NDM-1; [16]) [µM]	Escherichia coli MITC95 [1, 17] [µM]	Serratia marcescens MITC95 [2, 18] [µM]	Klebsiella pneumoniae MITC95 [3, 19] [µM]	IC50 (IMP-1; [20]) [µM]	other results
N=C(N)NC1CCN(c2ccc(C(F)(F)F)c(S(N)(=O)=O)c2-c2nnn[nH]2)CC1 [Example 824, 1-[1-[3-sulfamoyl-2-(1H-tetrazol-5-yl)-4-(trifluoromethyl)phenyl]-4-piperidyl]guanidine]												IC50 (NDM-1; [4]): 0.0531 µM; Escherichia coli MITC95 [1, 5]: 1.563 µM; Serratia marcescens MITC95 [2, 6]: 0.7813 µM; Klebsiella pneumoniae MITC95 [3, 7]: 0.7813 µM; IC50 (IMP-1; [4]): 0.0592 µM; IC50 (VIM-1; [8]): 0.000702 µM
NS(=O)(=O)c1nccc(N2CCC(N3CCCC3)CC2)c1-c1nnn[nH]1 [Example 222, 4-(4-pyrrolidin-1-ylpiperidin-1-yl)-3-(1H-tetrazol-5-yl)pyridine-2-sulfonamide]												IC50 (NDM-1; [4]): 5.15 µM; Escherichia coli expressing NDM-1 (CLB 30016) MITC95 [1, 9]: 12.5 µM; Serratia marcescens expressing IMP-1 (CL5741) MITC95 [2, 9]: 75 µM; Klebsiella pneumoniae expressing VIM-1 (IHMA 599644) MITC95 [3, 9]: 12.5 µM; IC50 (IMP-1; [4]): 20 µM; IC50 (VIM-1; [8]): 0.794 µM
NS(=O)(=O)c1nccc(-n2cnc3ccccc32)c1-c1nn[nH]n1 [Example 246, 4-(1H-benzo[d]imidazol-1-yl)-3-(2H-tetrazol-5-yl)pyridine-2-sulfonamide]	0.0302	0.5859	150	12.5	2.81	0.0783						
NS(=O)(=O)c1c(C(F)(F)F)ccc(N2CCCC(CCO)C2)c1-c1nnn[nH]1 (stereo not drawn) [Example 660, 3-[3-(2-hydroxyethyl)piperidin-1-yl]-2-(1H-tetrazol-5-yl)-6-(trifluoromethyl)benzenesulfonamide]							0.0047	2.344	0.3906	6.25	0.0104	IC50 (VIM-1; [21]): 0.00131 µM
NC[C@H]1CC[C@@H](Cc2ccc(-c3ccc(N)nc3)c(-c3nnn[nH]3)c2S(N)(=O)=O)CC1 [Example 580, 6-(((1s,4s)-4-(aminomethyl)cyclohexyl)methyl)-3-(6-aminopyridin-3-yl)-2-(1H-tetrazol-5-yl)benzenesulfonamide]							0.000869	1.563	6.25	12.5	0.0227	IC50 (VIM-1; [22]): 0.0134 µM
NS(=O)(=O)c1cccc(-c2ccc3cnccc3c2)c1-c1nnn[nH]1 [Example 408, 3-(6-isoquinolyl)-2-(1H-tetrazol-5-yl)benzenesulfonamide]	0.00138	0.3906	4.688	75	0.0843	0.0149						
Cl.Cl.NC1(c2ccc(-c3cccc(S(N)(=O)=O)c3-c3nn[nH]n3)cc2)CCNCC1 [Example 283, 4′-(4-aminopiperidin-4-yl)-2-(2H-tetrazol-5-yl)-[1,1′-biphenyl]-3-sulfonamide dihydrochloride]	0.033	0.5859	2.344	12.5	0.5	0.308						
NC1(c2ccc(-c3ccc(C(F)(F)F)c(S(N)(=O)=O)c3-c3nnn[nH]3)cc2)CC(O)C1 (stereo not drawn) [Example 728, 4′-(1-amino-3-hydroxycyclobutyl)-2-(1H-tetrazol-5-yl)-4-(trifluoromethyl)biphenyl-3-sulfonamide]							0.00259	3.125	6.25	25	0.00416	IC50 (VIM-1; [22]): 0.004 µM
Nc1nc2c(-c3ccc(CCC4CCC(N)CC4)c(S(N)(=O)=O)c3-c3nn[nH]n3)cccc2s1 (stereo not drawn) [Example 541, 3-(2-Aminobenzo[d]thiazol-4-yl)-6-(2-(4-aminocyclohexyl)ethyl)-2-(2H-tetrazol-5-yl)benzenesulfonamide]							0.000133	3.125	6.25	25	0.00721	IC50 (VIM-1; [21]): 0.00511 µM
NS(=O)(=O)c1c(C(F)(F)F)ccc(N2C[C@H](O)C[C@@H](O)C2)c1-c1nnn[nH]1 [Example 666, 3-[(3R,5R)-3,5-dihydroxypiperidin-1-yl]-2-(1H-tetrazol-5-yl)-6-(trifluoromethyl)benzenesulfonamide]							0.057	2.344	4.688	12.5	0.15	IC50 (VIM-1; [21]): 0.0147 µM
Nc1ccnc2ccc(-c3ccc(C(F)(F)F)c(S(N)(=O)=O)c3-c3nnn[nH]3)cc12 [Example 479, 3-(4-amino-6-quinolyl)-2-(1H-tetrazol-5-yl)-6-(trifluoromethyl)benzenesulfonamide]	0.00666	0.3906	1.563	0.7813	0.0303	0.000373						
N#Cc1cccc2ncc(-c3cccc(S(N)(=O)=O)c3-c3nnn[nH]3)n12 [Example 649, 3-(5-cyanoimidazo[1,2-a]pyridin-3-yl)-2-(1H-tetrazol-5-yl)benzenesulfonamide]							0.00287	2.344	3.125	12.5	0.0484	IC50 (VIM-1; [21]): 0.0128 µM
CC(NCc1ccc(-c2cccc(S(N)(=O)=O)c2-c2nnn[nH]2)cc1)c1nn[nH]n1 (stereo not drawn) [Example 353, 2-(1H-tetrazol-5-yl)-4′-({[1-(2H-tetrazol-5-yl)ethyl]amino}methyl)biphenyl-3-sulfonamide]	0.0041	2.344	1.172	100	0.028							IC50 (VIM-1; VIM-1 IC50, VIM-1 enzyme, CCF2-FA fluorescence assay): 0.689 µM
NS(=O)(=O)c1c(C(F)(F)F)ccc(-c2ccc3c(c2)CNC3=O)c1-c1nnn[nH]1 [Example 746, 3-(1-oxo-2,3-dihydro-1H-isoindol-5-yl)-2-(1H-tetrazol-5-yl)-6-(trifluoromethyl)benzenesulfon-amide]												IC50 (NDM-1; [4]): 0.00227 µM; Escherichia coli MITC95 [1, 5]: 6.25 µM; Serratia marcescens MITC95 [2, 6]: 6.25 µM; Klebsiella pneumoniae MITC95 [3, 7]: 6.25 µM; IC50 (IMP-1; [4]): 0.00259 µM; IC50 (VIM-1; [8]): 0.000234 µM
N=C(N)N1CCC2(CC1)CCN(c1ccc(C(F)(F)F)c(S(N)(=O)=O)c1-c1nnn[nH]1)CC2 [Example 822, 9-[3-sulfamoyl-2-(1H-tetrazol-5-yl)-4-(trifluoromethyl)phenyl]-3,9-diazaspiro[5.5]undecane-3-carboxamidine]												IC50 (NDM-1; [4]): 0.00144 µM; Escherichia coli MITC95 [1, 5]: 0.6406 µM; Serratia marcescens MITC95 [2, 6]: 0.0938 µM; Klebsiella pneumoniae MITC95 [3, 7]: 1.086 µM; IC50 (IMP-1; [4]): 0.00225 µM; IC50 (VIM-1; VIM-1 IC50, fluorescence assay with CCF2-FA substrate): 0.000195 µM
NS(=O)(=O)c1cccc(-c2ccc(CNC3CCC(=O)NC3)cc2)c1-c1nnn[nH]1 (stereo not drawn) [Example 375, 4′-{[(6-oxopiperidin-3-yl)amino]methyl}-2-(1H-tetrazol-5-yl)biphenyl-3-sulfonamide]	0.00613	1.563	3.125	>200	0.0976	0.533						
